Source: PubChem BioAssay (NCI)
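Test compounds were applied to cells in 96-well plates for 48 hours at 5 doses. GI50 is the concentration that inhibits growth by half. Definition used: TGI = concentration required for complete inhibition of growth.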

What was measured:
Assay in all cases: NCI tumour cell line growth inhibition, 48 h
[1] = test system: MDA-MB-231 breast
[2] = test system: NCI-H226 lung
[3] = test system: RXF 393 renal
[4] = test system: HL-60(TB) leukemia
[5] = test system: NCI-H23 lung
[6] = test system: T-47D breast
[7] = test system: SNB-75 CNS
[8] = test system: ACHN renal
[9] = test system: SK-MEL-2 melanoma
[10] = test system: SW-620 colon
[11] = test system: KM12 colon
[12] = test system: SR leukemia
[13] = test system: M14 melanoma
[14] = test system: RPMI-8226 leukemia
[15] = test system: OVCAR-8 ovarian
[16] = test system: BT-549 breast
[17] = test system: SF-539 CNS
[18] = test system: SK-MEL-5 melanoma
[19] = test system: HS 578T breast
[20] = test system: SF-268 CNS
[21] = test system: TK-10 renal
[22] = test system: UO-31 renal
[23] = test system: DU-145 prostate
[24] = test system: CAKI-1 renal
[25] = test system: NCI-H522 lung
[26] = test system: K-562 leukemia
[27] = test system: SNB-19 CNS
[28] = test system: HCC-2998 colon
[29] = test system: UACC-257 melanoma
[30] = test system: LOX IMVI melanoma
[31] = test system: HCT-116 colon
[32] = test system: SK-MEL-28 melanoma
[33] = test system: IGROV1 ovarian
[34] = test system: OVCAR-4 ovarian
[35] = test system: NCI-H460 lung
[36] = test system: 786-0 renal
[37] = test system: UACC-62 melanoma
[38] = test system: MCF7 breast
[39] = test system: HT29 colon
[40] = test system: CCRF-CEM leukemia
[41] = test system: HCT-15 colon
[42] = test system: OVCAR-3 ovarian
[43] = test system: HOP-62 NSCLC
[44] = test system: MALME-3M melanoma
[45] = test system: OVCAR-5 ovarian
[46] = test system: U251 CNS
[47] = test system: COLO 205 colon
[48] = test system: NCI/ADR-RES ovarian
[49] = test system: PC-3 prostate
[50] = test system: EKVX NSCLC
[51] = test system: SK-OV-3 ovarian
[52] = test system: SF-295 CNS
[53] = test system: HOP-92 NSCLC
[54] = test system: A549 NSCLC
[55] = test system: SN12C renal
[56] = test system: A498 renal
[57] = test system: MOLT-4 leukemia
[58] = test system: MDA-MB-435

CN(C)c1ccc(C(=S)c2ccc(N(C)C)cc2)cc1
GI50 [1]: 8 µM | TGI [1]: > 100 µM | GI50 [2]: 22.2 µM | TGI [2]: > 100 µM | GI50 [3]: 4.81 µM | TGI [3]: 42.9 µM | GI50 [4]: 4.17 µM | TGI [4]: > 100 µM | GI50 [5]: 7.28 µM | TGI [5]: > 100 µM | GI50 [6]: 6.34 µM | TGI [6]: > 100 µM | GI50 [7]: 5.28 µM | TGI [7]: 40.2 µM | GI50 [8]: 13.4 µM | TGI [8]: > 100 µM | GI50 [9]: 3.53 µM | TGI [9]: 15.2 µM | GI50 [10]: 3.98 µM | TGI [10]: > 100 µM | GI50 [11]: 3.88 µM | TGI [11]: > 100 µM | GI50 [12]: 3.75 µM | TGI [12]: 92.6 µM | GI50 [13]: 3.33 µM | TGI [13]: > 100 µM | GI50 [14]: 9.89 µM | TGI [14]: > 100 µM | GI50 [15]: 11.6 µM | TGI [15]: > 100 µM | GI50 [16]: 6.76 µM | TGI [16]: 90.1 µM | GI50 [17]: 7.1 µM | TGI [17]: 56.4 µM | GI50 [18]: 3.45 µM | TGI [18]: 20.6 µM | GI50 [19]: 3.84 µM | TGI [19]: > 100 µM | GI50 [20]: 10.1 µM | TGI [20]: > 100 µM | GI50 [21]: 13.8 µM | TGI [21]: > 100 µM | GI50 [22]: 8.92 µM | TGI [22]: > 100 µM | GI50 [23]: 20.3 µM | TGI [23]: > 100 µM | GI50 [24]: 6.15 µM | TGI [24]: > 100 µM | GI50 [25]: 2.56 µM | TGI [25]: 9.31 µM | GI50 [26]: 3.61 µM | TGI [26]: > 100 µM | GI50 [27]: 6.16 µM | TGI [27]: > 100 µM | GI50 [28]: 9.66 µM | TGI [28]: > 100 µM | GI50 [29]: 16.2 µM | TGI [29]: > 100 µM | GI50 [30]: 5.86 µM | TGI [30]: 88.6 µM | GI50 [31]: 3.71 µM | TGI [31]: > 100 µM | GI50 [32]: 7.59 µM | TGI [32]: > 100 µM | GI50 [33]: 6.29 µM | TGI [33]: > 100 µM | GI50 [34]: 16.9 µM | TGI [34]: > 100 µM | GI50 [35]: 3.97 µM | TGI [35]: > 100 µM | GI50 [36]: 10.3 µM | TGI [36]: > 100 µM | GI50 [37]: 4.47 µM | TGI [37]: > 100 µM | GI50 [38]: 3.92 µM | TGI [38]: > 100 µM | GI50 [39]: 3.79 µM | TGI [39]: > 100 µM | GI50 [40]: 6.64 µM | TGI [40]: > 100 µM | GI50 [41]: 4.27 µM | TGI [41]: > 100 µM | GI50 [42]: 3.93 µM | TGI [42]: > 100 µM | GI50 [43]: 5.09 µM | TGI [43]: > 100 µM | GI50 [44]: 5.5 µM | TGI [44]: > 100 µM | GI50 [45]: 39.1 µM | TGI [45]: > 100 µM | GI50 [46]: 6.34 µM | TGI [46]: > 100 µM | GI50 [47]: 6.83 µM | TGI [47]: 59 µM | GI50 [48]: 2.4 µM | TGI [48]: 7.66 µM | GI50 [49]: 22.5 µM | TGI [49]: > 100 µM | GI50 [50]: 16.5 µM | TGI [50]: > 100 µM | GI50 [51]: 10.9 µM | TGI [51]: > 100 µM | GI50 [52]: 4.73 µM | TGI [52]: > 100 µM | GI50 [53]: 9.01 µM | TGI [53]: 86.8 µM | GI50 [54]: 7.81 µM | TGI [54]: > 100 µM | GI50 [55]: 5.91 µM | TGI [55]: > 100 µM | GI50 [56]: 3.16 µM | TGI [56]: 74.8 µM | GI50 [57]: 6.35 µM | TGI [57]: > 100 µM

Clc1ccc(-c2cc(-c3ccccc3)nc(N3CCN(CCCNc4ccnc5cc(Cl)ccc45)CC3)n2)cc1
GI50 [1]: 1.67 µM | TGI [1]: 3.19 µM | GI50 [3]: 1.25 µM | TGI [3]: 2.58 µM | GI50 [4]: 1 µM | TGI [4]: 2.83 µM | GI50 [6]: 1.14 µM | TGI [6]: 3.38 µM | GI50 [58]: 1.73 µM | TGI [58]: 3.16 µM | GI50 [7]: 1.49 µM | TGI [7]: 2.85 µM | GI50 [8]: 1.61 µM | TGI [8]: 2.96 µM | GI50 [9]: 1.82 µM | TGI [9]: 3.39 µM | GI50 [10]: 1.42 µM | TGI [10]: 3.06 µM | GI50 [11]: 1.68 µM | TGI [11]: 3.2 µM | GI50 [13]: 1.87 µM | TGI [13]: 3.53 µM | GI50 [14]: 1.74 µM | TGI [14]: 4.41 µM | GI50 [15]: 1.15 µM | TGI [15]: 2.93 µM | GI50 [16]: 1.68 µM | TGI [16]: 3.23 µM | GI50 [17]: 1.79 µM | TGI [17]: 3.25 µM | GI50 [18]: 1.67 µM | TGI [18]: 3.06 µM | GI50 [19]: 1.86 µM | TGI [19]: 4.38 µM | GI50 [20]: 1.73 µM | TGI [20]: 3.64 µM | GI50 [21]: 1.75 µM | TGI [21]: 3.26 µM | GI50 [22]: 1.55 µM | TGI [22]: 2.9 µM | GI50 [23]: 1.52 µM | TGI [23]: 2.94 µM | GI50 [24]: 1.66 µM | TGI [24]: 3.13 µM | GI50 [25]: 1.78 µM | TGI [25]: 3.54 µM | GI50 [26]: 0.461 µM | TGI [26]: 2.31 µM | GI50 [28]: 1.56 µM | TGI [28]: 3.02 µM | GI50 [29]: 1.93 µM | TGI [29]: 3.89 µM | GI50 [30]: 1.75 µM | TGI [30]: 3.19 µM | GI50 [31]: 0.934 µM | TGI [31]: 2.22 µM | GI50 [32]: 1.72 µM | TGI [32]: 3.14 µM | GI50 [33]: 1.45 µM | TGI [33]: 2.89 µM | GI50 [34]: 1.16 µM | TGI [34]: 2.61 µM | GI50 [35]: 1.56 µM | TGI [35]: 3.1 µM | GI50 [36]: 1.47 µM | TGI [36]: 2.84 µM | GI50 [37]: 1.79 µM | TGI [37]: 3.25 µM | GI50 [38]: 1.63 µM | TGI [38]: 3.81 µM | GI50 [39]: 0.464 µM | TGI [39]: 1.76 µM | GI50 [41]: 0.779 µM | TGI [41]: 2.48 µM | GI50 [42]: 1.55 µM | TGI [42]: 2.98 µM | GI50 [43]: 1.2 µM | TGI [43]: 2.78 µM | GI50 [44]: 1.81 µM | TGI [44]: 3.35 µM | GI50 [45]: 1.66 µM | TGI [45]: 3.08 µM | GI50 [46]: 1.29 µM | TGI [46]: 2.63 µM | GI50 [47]: 1.87 µM | TGI [47]: 3.7 µM | GI50 [48]: 1.75 µM | TGI [48]: 3.53 µM | GI50 [51]: 1.74 µM | TGI [51]: 3.17 µM | GI50 [52]: 1.86 µM | TGI [52]: 3.72 µM | GI50 [53]: 1.21 µM | TGI [53]: 2.6 µM | GI50 [54]: 1.77 µM | TGI [54]: 3.75 µM | GI50 [55]: 1.42 µM | TGI [55]: 2.84 µM | GI50 [56]: 1.48 µM | TGI [56]: 2.81 µM | GI50 [57]: 1.22 µM | TGI [57]: 4.35 µM
